Measurements from ChEMBL document CHEMBL3611985, “Synthesis and structure-activity relationships of novel 9-oxime acylides with improved bactericidal activity” (2015).
≈ marks a conversion by molar mass, not a printed value.

How the values were obtained:
Type in all cases: functional
[1] = system: Staphylococcus aureus; experiment: Antimicrobial activity against methicillin-resistant Staphylococcus aureus PU32 expressing inducible ermA incubated for 20 hrs by two-fold microbroth dilution method; settings: PU32, 20 h
[2] = system: Streptococcus pneumoniae; experiment: Antimicrobial activity against Streptococcus pneumoniae 07P390 expressing constitutive ermB incubated for 20 to 24 hrs by two-fold microbroth dilution method
[3] = system: Haemophilus influenzae; experiment: Antimicrobial activity against azithromycin-susceptible and ampicillin-resistant Haemophilus influenzae 11P037 incubated for 20 to 24 hrs by two-fold microbroth dilution method
[4] = system: Streptococcus pneumoniae; experiment: Antimicrobial activity against erythromycin-susceptible Streptococcus pneumoniae ATCC 49619 incubated for 20 to 24 hrs by two-fold microbroth dilution method
[5] = system: Staphylococcus aureus; experiment: Antimicrobial activity against methicillin-resistant Staphylococcus aureus PU20 expressing constitutive ermC incubated for 20 hrs by two-fold microbroth dilution method; settings: PU20, 20 h
[6] = system: Streptococcus pneumoniae; experiment: Antimicrobial activity against penicillin-susceptible Streptococcus pneumoniae PU09 incubated for 20 to 24 hrs by two-fold microbroth dilution method
[7] = system: Streptococcus pyogenes; experiment: Antimicrobial activity against Streptococcus pyogenes 01-968 expressing inducible ermA incubated for 20 to 24 hrs by two-fold microbroth dilution method
[8] = system: Streptococcus pneumoniae; experiment: Ratio of MBC to MIC against penicillin-susceptible Streptococcus pneumoniae PU09
[9] = system: Streptococcus pneumoniae; experiment: Bactericidal activity against erythromycin-susceptible Streptococcus pneumoniae ATCC 49619 incubated for 20 to 24 hrs followed by sub-culturing for 24 hrs in absence of compound
[10] = system: Staphylococcus aureus; experiment: Bactericidal activity against methicillin-resistant Staphylococcus aureus PU32 expressing inducible ermA incubated for 20 hrs followed by sub-culturing for 24 hrs in absence of compound
[11] = system: Moraxella catarrhalis; experiment: Bactericidal activity against erythromycin-susceptible Moraxella catarrhalis 11B366 incubated for 20 hrs followed by sub-culturing for 24 hrs in absence of compound
[12] = system: Streptococcus pyogenes; experiment: Ratio of MBC to MIC against Streptococcus pyogenes 01-968 expressing inducible ermA
[13] = system: Moraxella catarrhalis; experiment: Ratio of MBC to MIC against erythromycin-susceptible Moraxella catarrhalis 11B366
[14] = system: Staphylococcus aureus; experiment: Ratio of MBC to MIC against methicillin-resistant Staphylococcus aureus PU20 expressing constitutive ermC
[15] = system: Streptococcus pyogenes; experiment: Bactericidal activity against Streptococcus pyogenes 01-968 expressing inducible ermA incubated for 20 to 24 hrs followed by sub-culturing for 24 hrs in absence of compound
[16] = system: Streptococcus pyogenes; experiment: Antimicrobial activity against Streptococcus pyogenes 12-207 expressing mef incubated for 20 to 24 hrs by two-fold microbroth dilution method
[17] = system: Streptococcus pneumoniae; experiment: Bactericidal activity against penicillin-susceptible Streptococcus pneumoniae PU09 incubated for 20 to 24 hrs followed by sub-culturing for 24 hrs in absence of compound
[18] = system: Streptococcus pyogenes; experiment: Bactericidal activity against Streptococcus pyogenes 12-207 expressing mef incubated for 20 to 24 hrs followed by sub-culturing for 24 hrs in absence of compound
[19] = system: Staphylococcus aureus; experiment: Ratio of MBC to MIC against methicillin-resistant Staphylococcus aureus PU32 expressing inducible ermA
[20] = system: Moraxella catarrhalis; experiment: Antimicrobial activity against erythromycin-susceptible Moraxella catarrhalis 11B366 incubated for 20 hrs by two-fold microbroth dilution method; settings: 11B366, 20 h
[21] = system: Streptococcus pyogenes; experiment: Ratio of MBC to MIC against Streptococcus pyogenes 12-207 expressing mef
[22] = system: Staphylococcus aureus; experiment: Bactericidal activity against methicillin-resistant Staphylococcus aureus PU20 expressing constitutive ermC incubated for 20 hrs followed by sub-culturing for 24 hrs in absence of compound
[23] = system: Streptococcus pneumoniae; experiment: Ratio of MBC to MIC against erythromycin-susceptible Streptococcus pneumoniae ATCC 49619
[24] = system: Haemophilus influenzae; experiment: Bactericidal activity against azithromycin-susceptible and ampicillin-resistant Haemophilus influenzae 11P037 incubated for 20 to 24 hrs followed by sub-culturing for 24 hrs in absence of compound
[25] = system: Haemophilus influenzae; experiment: Ratio of MBC to MIC against azithromycin-susceptible and ampicillin-resistant Haemophilus influenzae 11P037

Structure (SMILES) | MIC [1] [µg/mL] | MIC [2] [µg/mL] | MIC [3] [µg/mL] | MIC [4] [µg/mL] | MIC [5] [µg/mL] | MIC [6] [µg/mL] | MIC [7] [µg/mL] | further results
CC[C@H]1OC(=O)[C@H](C)[C@@H](OC(=O)Cc2ccccn2)[C@H](C)[C@@H](O[C@@H]2O[C@H](C)C[C@H](N(C)C)[C@H]2O)[C@](C)(OC)C[C@@H](C)/C(=N\OCC#Cc2ccc([N+](=O)[O-])nc2)[C@H](C)[C@H]2OC(=O)O[C@@]21C | 0.25 (≈ 0.275 µM) | 1 (≈ 1.1 µM) | > 64 | 0.031 (≈ 0.0341 µM) | > 64 | 0.5 (≈ 0.549 µM) | 0.5 (≈ 0.549 µM) | 
CC[C@H]1OC(=O)[C@H](C)[C@@H](OC(=O)Cc2ccccn2)[C@H](C)[C@@H](O[C@@H]2O[C@H](C)C[C@H](N(C)C)[C@H]2O)[C@](C)(OC)C[C@@H](C)/C(=N\OCC#Cc2cccc(NC(=O)Cc3ccccn3)n2)[C@H](C)[C@H]2OC(=O)O[C@@]21C | 2 (≈ 2 µM) | 1 (≈ 1 µM) | > 64 | 0.125 (≈ 0.125 µM) | > 64 | 2 (≈ 2 µM) | 4 (≈ 4 µM) | 
CC[C@H]1OC(=O)[C@H](C)[C@@H](OC(=O)Cc2ccccn2)[C@H](C)[C@@H](O[C@@H]2O[C@H](C)C[C@H](N(C)C)[C@H]2O)[C@](C)(OC)C[C@@H](C)/C(=N\OCC#Cc2cncc(NC(=O)Cc3ccccn3)c2)[C@H](C)[C@H]2OC(=O)O[C@@]21C | 2 (≈ 2 µM) | 1 (≈ 1 µM) | > 64 | 0.031 (≈ 0.031 µM) | > 64 | 2 (≈ 2 µM) | 4 (≈ 4 µM) | 
CC[C@H]1OC(=O)[C@H](C)[C@@H](OC(=O)Cc2ccccn2)[C@H](C)[C@@H](O[C@@H]2O[C@H](C)C[C@H](N(C)C)[C@H]2O)[C@](C)(OC)C[C@@H](C)/C(=N\OCC#Cc2ccc(NC(=O)Cc3ccccn3)nc2)[C@H](C)[C@H]2OC(=O)O[C@@]21C | 4 (≈ 4 µM) | 1 (≈ 1 µM) | > 64 | 0.062 (≈ 0.0621 µM) | > 64 | 1 (≈ 1 µM) | 4 (≈ 4 µM) | 
CC[C@H]1OC(=O)[C@H](C)[C@@H](OC(=O)Cc2ccccn2)[C@H](C)[C@@H](O[C@@H]2O[C@H](C)C[C@H](N(C)C)[C@H]2O)[C@](C)(OC)C[C@@H](C)/C(=N\OCC#Cc2ccc(N)nc2)[C@H](C)[C@H]2OC(=O)O[C@@]21C | 0.5 (≈ 0.568 µM) | 2 (≈ 2.27 µM) | 32 (≈ 36.4 µM) | 0.008 (≈ 0.00909 µM) | > 64 | 0.5 (≈ 0.568 µM) | 1 (≈ 1.14 µM) | 
CC[C@H]1OC(=O)[C@H](C)[C@@H](OC(=O)Cc2ccccn2)[C@H](C)[C@@H](O[C@@H]2O[C@H](C)C[C@H](N(C)C)[C@H]2O)[C@](C)(OC)C[C@@H](C)/C(=N\OC/C=C/c2cccnc2N)[C@H](C)[C@H]2OC(=O)O[C@@]21C | 1 (≈ 1.13 µM) | 4 (≈ 4.53 µM) | 32 (≈ 36.3 µM) | 0.062 (≈ 0.0703 µM) | > 64 | 1 (≈ 1.13 µM) | 2 (≈ 2.27 µM) | 
CC[C@H]1OC(=O)[C@H](C)[C@@H](OC(=O)Cc2ccccn2)[C@H](C)[C@@H](O[C@@H]2O[C@H](C)C[C@H](N(C)C)[C@H]2O)[C@](C)(OC)C[C@@H](C)/C(=N\OC/C=C/c2ccnc(NC(=O)Cc3ccccn3)c2)[C@H](C)[C@H]2OC(=O)O[C@@]21C | 4 (≈ 4 µM) | 4 (≈ 4 µM) | > 64 | 0.125 (≈ 0.125 µM) | > 64 | 4 (≈ 4 µM) | 4 (≈ 4 µM) | 
CC[C@H]1OC(=O)[C@H](C)[C@@H](OC(=O)Cc2ccccn2)[C@H](C)[C@@H](O[C@@H]2O[C@H](C)C[C@H](N(C)C)[C@H]2O)[C@](C)(OC)C[C@@H](C)/C(=N\OC/C=C/c2cncc(NC(=O)Cc3ccccn3)c2)[C@H](C)[C@H]2OC(=O)O[C@@]21C | 2 (≈ 2 µM) | 2 (≈ 2 µM) | > 64 | 0.062 (≈ 0.0619 µM) | > 64 | 2 (≈ 2 µM) | 4 (≈ 4 µM) | 
CC[C@H]1OC(=O)[C@H](C)[C@@H](OC(=O)Cc2ccccn2)[C@H](C)[C@@H](O[C@@H]2O[C@H](C)C[C@H](N(C)C)[C@H]2O)[C@](C)(OC)C[C@@H](C)/C(=N\OC/C=C/c2ccc(NC(=O)Cc3ccccn3)nc2)[C@H](C)[C@H]2OC(=O)O[C@@]21C | 4 (≈ 4 µM) | 2 (≈ 2 µM) | > 64 | 0.125 (≈ 0.125 µM) | > 64 | 2 (≈ 2 µM) | 8 (≈ 7.99 µM) | 
CC[C@H]1OC(=O)[C@H](C)[C@@H](OC(=O)Cc2ccccn2)[C@H](C)[C@@H](O[C@@H]2O[C@H](C)C[C@H](N(C)C)[C@H]2O)[C@](C)(OC)C[C@@H](C)/C(=N\OC/C=C/c2ccc(N)nc2)[C@H](C)[C@H]2OC(=O)O[C@@]21C | 0.5 (≈ 0.567 µM) | 1 (≈ 1.13 µM) | 32 (≈ 36.3 µM) | 0.031 (≈ 0.0351 µM) | > 64 | 1 (≈ 1.13 µM) | 4 (≈ 4.53 µM) | 
CC[C@H]1OC(=O)[C@H](C)[C@@H](OC(=O)Cc2ccccn2)[C@H](C)[C@@H](O[C@@H]2O[C@H](C)C[C@H](N(C)C)[C@H]2O)[C@](C)(OC)C[C@@H](C)/C(=N\OCCCc2cncc(NC(=O)Cc3ccccn3)c2)[C@H](C)[C@H]2OC(=O)O[C@@]21C | 4 (≈ 3.99 µM) | 4 (≈ 3.99 µM) | > 64 | 0.125 (≈ 0.125 µM) | > 64 | 4 (≈ 3.99 µM) | 8 (≈ 7.97 µM) | 
CC[C@H]1OC(=O)[C@H](C)[C@@H](OC(=O)Cc2ccccn2)[C@H](C)[C@@H](O[C@@H]2O[C@H](C)C[C@H](N(C)C)[C@H]2O)[C@](C)(OC)C[C@@H](C)/C(=N\OCCCc2ccc(NC(=O)Cc3ccccn3)nc2)[C@H](C)[C@H]2OC(=O)O[C@@]21C | 2 (≈ 1.99 µM) | 2 (≈ 1.99 µM) | > 64 | 0.125 (≈ 0.125 µM) | > 64 | 2 (≈ 1.99 µM) | 8 (≈ 7.97 µM) | 
CC[C@H]1OC(=O)[C@H](C)[C@@H](OC(=O)Cc2ccccn2)[C@H](C)[C@@H](O[C@@H]2O[C@H](C)C[C@H](N(C)C)[C@H]2O)[C@](C)(OC)C[C@@H](C)/C(=N\OCC#Cc2ccc(-n3ccnc3)cc2)[C@H](C)[C@H]2OC(=O)O[C@@]21C | 2 (≈ 2.15 µM) |  | > 256 | 0.125 (≈ 0.134 µM) | 32 (≈ 34.4 µM) | 2 (≈ 2.15 µM) | 0.062 (≈ 0.0667 µM) | Ratio [8]: 2; MBC [9]: 0.25 µg/mL (≈ 0.269 µM); MBC [10]: > 16 µg/mL; MBC [11]: 8 µg/mL (≈ 8.6 µM); Ratio [12]: >8; Ratio [13]: 2; Ratio [14]: 2; MBC [15]: > 0.5 µg/mL; MIC [16]: 1 µg/mL (≈ 1.08 µM); MBC [17]: 4 µg/mL (≈ 4.3 µM); MBC [18]: 8 µg/mL (≈ 8.6 µM); Ratio [19]: >8; MIC [20]: 4 µg/mL (≈ 4.3 µM); Ratio [21]: 8; MBC [22]: 64 µg/mL (≈ 68.8 µM); Ratio [23]: 2
CC[C@H]1OC(=O)[C@H](C)[C@@H](O[C@H]2C[C@@](C)(OC)[C@@H](O)[C@H](C)O2)[C@H](C)[C@@H](O[C@@H]2O[C@H](C)C[C@H](N(C)C)[C@H]2O)[C@](C)(OC)C[C@@H](C)C(=O)[C@H](C)[C@@H](O)[C@]1(C)O [CLARITHROMYCIN] | 32 (≈ 42.8 µM) | > 64 | 4 (≈ 5.35 µM) | 0.062 (≈ 0.0829 µM) | > 64 | 2 (≈ 2.67 µM) | 4 (≈ 5.35 µM) | MBC [10]: > 16 µg/mL; MBC [11]: 0.25 µg/mL (≈ 0.334 µM); Ratio [12]: >8; Ratio [13]: 2; MBC [15]: > 8 µg/mL; MIC [16]: 16 µg/mL (≈ 21.4 µM); MBC [18]: 32 µg/mL (≈ 42.8 µM); Ratio [19]: >2; MIC [20]: 0.125 µg/mL (≈ 0.167 µM); Ratio [21]: 2; MBC [24]: 8 µg/mL (≈ 10.7 µM); Ratio [25]: 8
CC[C@H]1OC(=O)[C@H](C)C(=O)[C@H](C)[C@@H](O[C@@H]2O[C@H](C)C[C@H](N(C)C)[C@H]2O)[C@](C)(OC)C[C@@H](C)C(=O)[C@H](C)[C@H]2N(CCCCn3cnc(-c4cccnc4)c3)C(=O)O[C@]12C [TELITHROMYCIN] | 0.25 (≈ 0.308 µM) | 0.062 (≈ 0.0764 µM) | 2 (≈ 2.46 µM) | 0.031 (≈ 0.0382 µM) | > 64 | 0.25 (≈ 0.308 µM) | 2 (≈ 2.46 µM) | MBC [10]: > 1 µg/mL; MBC [11]: 0.25 µg/mL (≈ 0.308 µM); Ratio [13]: 1; MBC [15]: 0.125 µg/mL (≈ 0.154 µM); MIC [16]: 0.5 µg/mL (≈ 0.616 µM); MBC [18]: 1 µg/mL (≈ 1.23 µM); Ratio [19]: >8; MIC [20]: 0.25 µg/mL (≈ 0.308 µM); Ratio [21]: 2; MBC [24]: 4 µg/mL (≈ 4.93 µM); Ratio [25]: 4
